Laboratory results reported in ChEMBL document CHEMBL1201862, “PubChem BioAssay data set” (2004).
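Step 1: Grow cells in 96-well plates. Step 2: Expose to compound for 48 hours at 5 concentrations. Step 3: Interpolate endpoints linearly; if unreached, use highest concentration. At the GI50, growth is halved.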 Active and inactive are the calls of the source. No stated cut-off is given here; in the data, active = GI50 up to about 1.1 µM and inactive = higher.

Legend:
Assay in all cases: NCI-60 cell line screen, 48 h
[1] = test system: 786-0
[2] = test system: ACHN
[3] = test system: CAKI-1
[4] = test system: DU-145
[5] = test system: HL-60
[6] = test system: HOP-92
[7] = test system: KM12
[8] = test system: LOX IMVI
[9] = test system: M14
[10] = test system: MCF7
[11] = test system: MDA-MB-231
[12] = test system: NCI/ADR-RES
[13] = test system: OVCAR-4
[14] = test system: SF-295
[15] = test system: SF-539
[16] = test system: SN12C
[17] = test system: SNB-75
[18] = test system: SR
[19] = test system: SW-620
[20] = test system: UO-31

Measured: GI50

CC1(c2ccc(Cl)cc2)N=C(NCCO)c2ccccc21 (stereo not given)
inactive: [1] 12.5 µM | [2] 29.4 µM | [3] > 71 µM | [4] 2.07 µM | [5] 3.23 µM | [6] 8.53 µM | [7] 15.7 µM | [8] 13.8 µM | [9] 9.84 µM | [10] 20.7 µM | [11] 19.1 µM | [12] 99.5 µM | [13] 67.9 µM | [14] 8.36 µM | [15] 2.25 µM | [16] 16.9 µM | [17] 19.5 µM | [18] 16.4 µM | [19] 10.5 µM | [20] 17.8 µM
